According to patent publication US4837241A (priority 1986, dated 1989):

Legend:
[1] = biological target: muscarinic acetylcholine receptors; assay type: binding, rat (male Wistar); details: 3H-QNB 1 nM; whole forebrain membranes, male Wistar rats; 37° C., 20 min, pH 7.1; non-specific: atropine 1 μg/ml
[2] = background, in words; cited from earlier work
muscarinic cholinergic = details: background, in words; cited from earlier work
[3] = background, in words; cited from earlier work; remark: listed apart in the source
muscarinic = details: background, in words; cited from earlier work

Row | SMILES | QNB binding Inhibition in vitro (IC50) [1] | further results
1 | CCc1noc(C2=CCCN(C)C2)n1 | 3.5 µg/mL | 
2 | CN1CCC=C(c2nc(C3CC3)no2)C1 | 2.0 µg/mL | 
3 | CCCc1nc(C2=CCCN(C)C2)no1 | 3.2 µg/mL | 
4 | CC(C)c1noc(C2=CCCN(C)C2)n1 | 4.9 µg/mL | 
5 | C1=C(c2nc(C3CC3)no2)CNCC1 | 4.7 µg/mL | 
6 | CCCCc1noc(C2=CCC(C)N(C)C2)n1 (centres unmarked) | 3.3 µg/mL | 
7 | CCc1noc(C2=CC(C)CNC2)n1 (centres unmarked) | 7.5 µg/mL | 
8 | COC(=O)C1=CCCN(C)C1 [arecoline, methyl 1-methyl-1,2,5,6-tetrahydropiperidine-3-carboxylate] |  | biological half life [2]: very short biological half life; cholinergic agonist (muscarinic cholinergic): cholinergic agonist; toxicity [3]: rather toxic compound; separation between central and peripheral muscarinic effects (muscarinic): small separation between central and peripheral muscarinic effects
